The text below walks through data of US10111862B2, “Traps in the treatment of macular degeneration” (Aldeyra Therapeutics, Inc., priority 2013, dated 2018).

The test is described as follows: RAL depletion by compounds in rod outer segment preparation. Format: biochemical, bovine. To be noted: rod outer segment preparation containing 64 μM opsin at 37° C.; for Kapp, apparent equilibrium constant of RAL depletion / kapp, apparent second order rate constant of RAL depletion: nominal starting drug 1.00 mM, RAL 60 μM; for ΔGapp, apparent free energy change of RAL depletion: ΔGapp=−RT ln Kapp. The procedure:
The parameters associated with the RAL depletion chemistry are as follows:
[drawing 47] kapp: apparent second order rate constant of RAL depletion by drug. Kapp: apparent equilibrium constant of RAL depletion by drug.
[formula] ΔGapp: apparent free energy change of RAL depletion by drug. ΔGapp=−RT ln Kapp (2) Kring: equilibrium constant of tautomerism from imine to oxaminal (ring closed).
Frozen bovine rod outer segment preparation (64 μM of opsin) is thawed and vortexed thoroughly. A 200 μL aliquot of this sample is transferred into a 0.5 mL Eppendorf tube. To it is added 10 μL of 20 mM drug stock solution in EtOH, and the mixture is vortexed for 1 min. The tube is incubated at 37° C. in a Thermo Scientific microprocessor controlled 280 series water bath for 3 min before 5 μL freshly prepared 2.4 mM RAL solution in EtOH is added (the nominal starting concentrations of drug and RAL are 1.00 mM and 60 μM, respectively). After vortexing for 1 min, the tube is incubated at 37° C. over time. Aliquots of the reaction mixture (25 μL each) are taken periodically, and added onto 10 mg of solid NaBH4 in a 0.5 mL Eppendorf tube. To the latter is added carefully 400 μL of 2:1 (v/v) EtOH/HOAc. The reduction mixture is vortexed for 1 min and centrifuged. The supernatant is separated, and analyzed by HPLC using a standard HPLC method:
Solvent A: 0.05% HCOOH/95% HPLC grade water/5% HPLC grade MeCN
Solvent B: 0.05% HCOOH HPLC grade MeCN
Detector wavelengths: 329 and 250 nm
Reference wavelength: 400 nm
The RAL depletion percentages are calculated by normalization of ROL and Re-RAL-drug peak integrals, which are then plotted against reaction time. Least squares fit of the RAL depletion plot according to pseudo-first order kinetics yields observed first order rate constant kobsd, and kapp is calculated according to kobsd=kapp[drug]. Kapp is calculated from the equilibrium concentrations of free RAL, free drug and RAL-drug according to equation (1). ΔGapp was calculated according equation (2).

In the case of `Cc1ccc(-c2nc3cc(N)c(C(C)(C)O)c(Cl)c3o2)cc1` [Compound 2, 2-(5-amino-7-chloro-2-p-tolylbenzoxazol-6-yl)propan-2-ol], the “Kapp, apparent equilibrium constant of RAL depletion” value (from here on “Kapp, apparent equilibrium constant”) is on record as 2.29×10^6; the “kapp, apparent second order rate constant of RAL depletion” value is 24,700 M^−1·h^−1; the “ΔGapp, apparent free energy change of RAL depletion” value (from here on “ΔGapp, apparent free energy change”) is -9.0 kcal/mol.

Take `CC(C)(O)c1c(N)cc2nc(-c3ccccc3)oc2c1Cl` [Compound 3, 2-(5-amino-7-chloro-2-phenylbenzoxazol-6-yl)propan-2-ol]: the “Kapp, apparent equilibrium constant” value is given as 7.14×10^6; the “kapp, apparent second order rate constant of RAL depletion” value was 21,600 M^−1·h^−1; the “ΔGapp, apparent free energy change” value is -9.7 kcal/mol.

Take `CC(C)(O)c1c(N)cc2onc(C3CC3)c2c1Cl` [Compound 4, 2-(6-amino-4-chloro-3-cyclopropylbenzisoxazol-5-yl)propan-2-ol]: the “Kapp, apparent equilibrium constant” value is >2 × 10^7; the “kapp, apparent second order rate constant of RAL depletion” value was 31,700 M^−1·h^−1; the “ΔGapp, apparent free energy change” value was less than -10 kcal/mol.

As to `CC(C)(O)c1c(N)cc2c(C3CC3)noc2c1Cl` [Compound 5, 2-(5-amino-7-chloro-3-cyclopropylbenzisoxazol-6-yl)propan-2-ol], the “Kapp, apparent equilibrium constant” value is >2 × 10^7; the “kapp, apparent second order rate constant of RAL depletion” value is listed as 35,300 M^−1·h^−1; the “ΔGapp, apparent free energy change” value is less than -10 kcal/mol.

For `CC(C)(O)c1c(N)cc(Cl)c2c(C3CC3)noc12` [Compound 6, 2-(6-amino-4-chloro-3-cyclopropylbenzisoxazol-7-yl)propan-2-ol], the “Kapp, apparent equilibrium constant” value is listed as 3.35×10^6; the “kapp, apparent second order rate constant of RAL depletion” value is recorded as 12,700 M^−1·h^−1; the “ΔGapp, apparent free energy change” value is -9.2 kcal/mol.

For `CC(C)(O)c1nc2ccc(Cl)cc2cc1N` [reference compound], the “Kapp, apparent equilibrium constant” value is 1.55 × 10^5; the “kapp, apparent second order rate constant of RAL depletion” value is 3,570 M^−1·h^−1; the “ΔGapp, apparent free energy change” value is -7.4 kcal/mol.

Consider `CC(C)(O)c1cc2oc(-c3ccccc3)nc2cc1N` [reference compound], for which the “Kapp, apparent equilibrium constant” value is reported as 1.25 × 10^6; the “kapp, apparent second order rate constant of RAL depletion” value was 25,500 M^−1·h^−1; the “ΔGapp, apparent free energy change” value was -8.6 kcal/mol.
